These results are taken from US8455692B2, “Process for resolution of 1-(3-hydroxyphenyl)-2-methylamino ethanol” (Divi's Laboratories, Ltd., priority 2010, dated 2013).

The data set can be described thus: Solubility of phenylephrine base in water and methanol (Table 2). The data set is classed as physicochemical. The protocol:
One skilled in the art can improvise modifications to the above procedure in several aspects. For example it is possible to use the racemic phenylephrine hydrochloride salt, suspend it in methanol and add the requisite amount of alkali to liberate the free base before adding the R-naproxen to it. Phenylephrine base is not soluble in water but may be rendered soluble at a temperature above 80° and higher dilution but at lower dilution in hot methanol. Suitable combination of solvent, dilution and temperature may be chosen depending on the size of input. (See Table 2 below). R-naproxen may be added as a solution in methanol or as a solid to keep a low solvent ratio enabling better recovery of the salt.

In the case of `CNCC(O)c1cccc(O)c1` (racemic) [Phenylephrine base, 1-(3-hydroxyphenyl)-2-methylamino ethanol], the Solubility entry runs as follows: (Methanol, 25-30° C., 1 g in 10 mL) “Not soluble”; (Methanol, 25-30° C., 1 g in 30 mL) “Not soluble”; (Methanol, 25-30° C., 1 g in 100 mL) “Soluble”; (Methanol, 60-80° C., 1 g in 10 mL) “Not soluble”; (Methanol, 60-80° C., 1 g in 30 mL) “Soluble”; (Methanol, 60-80° C., 1 g in 100 mL) “Soluble”. Besides, the Solubility entry runs as follows: (Water, 25-30° C., 1 g in 10 mL) “Not soluble”; (Water, 25-30° C., 1 g in 30 mL) “Not soluble”; (Water, 25-30° C., 1 g in 100 mL) “Not soluble”; (Water, 60-80° C., 1 g in 10 mL) “Not soluble”; (Water, 60-80° C., 1 g in 30 mL) “Not soluble”; (Water, 60-80° C., 1 g in 100 mL) “Soluble”. Also, the Solubility entry is on record as “Not soluble” (Water, 100° C., 1 g in 10 mL); “Soluble” (Water, 100° C., 1 g in 30 mL); “Soluble” (Water, 100° C., 1 g in 100 mL). Also, the Solubility in water result (water) is given as “not soluble”.
